Assay results reported in patent US9248202B2, “Two-photon probe for detecting copper(II) ion and quantitative estimation of copper(II) ion in human tissue using the same” (Korea University Research and Business Foundation, priority 2014, dated 2016).

Legend:
[1] = Absorption and fluorescence spectra, quantum yield, energy transfer; assay type: physicochemical; settings: for φ (fluorescence quantum yield): uncertainty ± 15%; for λmax^abs: one-photon absorption; for λmax^t1: one-photon emission
Description: Absorption spectra were recorded using the Hewlett-Packard 8453 diode array spectrophotometer and fluorescence spectra were measured using the Amico-Bowman series 2 luminescence spectrometer a 1 cm standard quartz cell. The fluorescence quantum yield was determined using coumarin 307 and rhodamine B as references according to the literature method (J. N. Demas, G. A. Crosby, J. Phys. Chem. 1971, 75, 991).
(hereinafter, ‘ACCu2’), a compound of [Chemical Formula 12] (hereinafter, ‘FL’) and a compound of [Chemical Formula 13] (hereinafter, ‘IR’) in 1,4-dioxane, DMF, ethanol, EtOH/HEPES (9:1) and HEPES buffer ([HEPES]=20 mM, pH 7.0). Excitation wavelength was 420 nm. The solubility of ACCu2 in HEPES buffer ([HEPES]=20 mM, pH 7.0) as determined by the fluorescence method described in the literature (Kim, H. M.; Choo, H. J.; Jung, S. Y.; Ko, Y. G.; Park, W. H.; Jeon, S. J.; Kim, C. H.; Joo, T. H.; Cho, B. R. Chem Bio Chem 2007, 8, 553) was 8.0 μM, which was sufficient to stain cells.
To assess the origin of the spectral changes, the energy transfer efficiency (ETE) was calculated using Equation (1). The ETE was 93.4%.
In Equation (1), AIR and AIR′ are the absorbances of the IR moiety and IR, respectively, and FIR and FIR′ are the emission intensities of the IR moiety and IR, respectively, upon excitation at 373 nm.
The antenna effect in the one-photon (OP) (or TP) mode was 3.0 (or 3.1). The antenna effect was calculated by dividing the area of emission from the FL moiety upon excitation of the IR moiety at 373 nm (or 750 nm in the TP mode) by that collected from the direct excitation of FL at 461 nm (or 880 nm in the […]).

[2] = Two-photon action cross section; assay type: physicochemical; settings: EtOH/HEPES (9/1 v/v, pH 7.0)
Description: Referring to FIG. 4(a), the Φδmax value of ACCu2 in EtOH/HEPES (9/1 v/v, pH 7.0) buffer was 32 GM at 880 nm, while those for FL and IR were 32 GM at 880 nm and 46 GM at 750 nm. The lower Φδmax value of ACCu2 at 750 nm than that of IR is because of decreased fluorescence resonance energy transfer (FRET) from IR to FL and it allows to obtain bright TPM images of cells and ^.tissues labeled with ACCu2.
The two-photon cross section (δ) was determined by the fe tosecond (fs) fluorescence measurement technique described in the literature (S. K. Lee, W. J. Yang, J. J. Choi, C. H. Kim, S.-J. Jeon, B. R. Cho, Org. Lett 2005, 7, 323-326.), ACCu2 was dissolved in 20 mM HEPES buffer (pH 7.0) to a concentration of 3.0×10^−6 M and then two-photon induced fluorescence intensity was measured at 740-940 nm using rhodamine 6G as a reference, whose two-photon property has been well characterized. The intensities of two-photon induced fluorescence of the reference and the sample were determined at the same excitation wavelength.
The two-photon cross section can be calculated from equation (3). δ=δr(SsΦrΦrcr)/(SrΦsΦscs) Equation (3)
wherein s and r stand for the sample, i.e., ACCu2, and the reference, respectively. S denotes the intensity of the signal collected using a CCD detector, Φ is the fluorescence quantum yield, Φ is the overall fluorescence collection efficiency of the experimental apparatus, c is the number density of molecules in solution, and δr is the two-photon cross section of the reference molecule.

φ (fluorescence quantum yield) ([1]; 1,4-Dioxane (0.164))	φ (fluorescence quantum yield) ([1]; DMF (0.386))	φ (fluorescence quantum yield) ([1]; EtOH (0.654))	φ (fluorescence quantum yield) ([1]; EtOH/HEPES (9:1))	φ (fluorescence quantum yield) ([1]; HEPES buffer 20 mM, pH 7.0)	λmax^abs ([1]; 1,4-Dioxane (0.164))	λmax^abs ([1]; DMF (0.386))	λmax^abs ([1]; EtOH (0.654))	λmax^abs ([1]; EtOH/HEPES (9:1))	λmax^abs ([1]; HEPES buffer 20 mM, pH 7.0)	λmax^t1 ([1]; 1,4-Dioxane (0.164))	λmax^t1 ([1]; DMF (0.386))	λmax^t1 ([1]; EtOH (0.654))	λmax^t1 ([1]; EtOH/HEPES (9:1))	λmax^t1 ([1]; HEPES buffer 20 mM, pH 7.0)	Φδmax (two-photon action cross section) ([2]; at 880 nm)	Φδmax (two-photon action cross section) ([2]; at 750 nm)	Structure (SMILES)
0.77	0.29	0.25	0.15	0.0045	438 nm	454 nm	457 nm	461 nm	452 nm	536 nm	576 nm	582 nm	587 nm	590 nm	32 GM	–	CN(C)c1ccc2cc3cc(C(=O)NCc4ccc(C(=O)O)cn4)c(=O)oc3cc2c1 [FL]
0.080	0.070	0.18	0.62	1.00	367 nm	366 nm	372 nm	373 nm	375 nm	445 nm	448 nm	451 nm	460 nm	468 nm	–	46 GM	COCCOCCOCCOc1ccc2c(ccc3cc(C(=O)N4CCNCC4)c(=O)oc32)c1 [IR]
